# Measurements: patent US20070116713A1, “Compositions and methods for reducing or controlling blood cholesterol, lipoproteins, triglycerides and atherosclerosis” (priority 2005, published 2007)
# Assay: Case study: subjects taking capsules of the exemplary composition with exercise and low-fat diet; total cholesterol, triglycerides, LDL, HDL tracked
# Assay type: in vivo, humans
# Details: in two of the subjects; removed from the formulation
# From the text: An initial study included 34 subjects. The subjects were advised to exercise and follow a strict low-fat diet, in addition to consuming doses of the exemplary composition. The subjects were tracked from 8 to 24 months.
# It is contemplated within the scope of the invention to provide alternate formulations which eliminate nicotinic acid for use by those persons who cannot tolerate it.
smiles,measurement,value
O=C(O)c1cccnc1 [nicotinic acid],tolerability of nicotinic acid in the formulation,not tolerated
